In PubChem BioAssay (NCI):
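48-hour exposure; five concentrations; linearly interpolated endpoints. Here, GI50 denotes the concentration required for 50% inhibition of growth. TGI denotes the concentration required for complete inhibition of growth.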

Assays:
Experiment in all cases: DTP human tumour cell line panel, 48 h
[1] = test system: U251 CNS
[2] = test system: A549 NSCLC
[3] = test system: KM12 colon
[4] = test system: HCC-2998 colon
[5] = test system: NCI-H522 lung
[6] = test system: OVCAR-4 ovarian
[7] = test system: HCT-116 colon
[8] = test system: HOP-92 NSCLC
[9] = test system: SK-OV-3 ovarian
[10] = test system: HL-60(TB) leukemia

SMILES | GI50 [1] [µM] | TGI [1] [µM] | GI50 [2] [µM] | TGI [2] [µM] | GI50 [3] [µM] | TGI [3] [µM] | GI50 [4] [µM] | TGI [4] [µM] | GI50 [5] [µM] | TGI [5] [µM] | GI50 [6] [µM] | TGI [6] [µM] | GI50 [7] [µM] | TGI [7] [µM] | GI50 [8] [µM] | TGI [8] [µM] | GI50 [9] [µM] | TGI [9] [µM] | TGI [10] [µM] | GI50 [10] [µM]
O=C1CS/C(=N/S(=O)(=O)c2ccc(N3N=C4c5ccccc5CC4C3c3cccs3)cc2)N1C(=O)c1ccccc1 (stereo unspecified) | 36.3 | > 100 | 70.8 | > 100 | 21.4 | 56.4 | 17.6 | 46.6 | 60.1 | > 100 | > 100 | > 100 | 22 | 55.9 | 37.3 | > 100 | > 100 | > 100 | – | –
CCOC(=O)c1sc2c(C(=O)OCC)n3cc(C)cc(C)c3c2c1O | – | > 100 | – | > 100 | – | > 100 | – | > 100 | – | > 100 | – | > 100 | – | > 100 | – | > 100 | – | > 100 | – | –
COc1cc(Cl)c(CC(=O)c2c[nH]c3ccccc23)cc1OC | – | 44.4 | – | > 100 | – | > 100 | – | – | – | – | – | > 100 | – | > 100 | – | 15.6 | – | 40 | > 67.3 | –
CCC1CCCCN1CC(C(C)=O)C(c1ccccc1)c1c(O)c2ccccc2oc1=O (stereo unspecified) | – | > 100 | – | > 100 | – | > 100 | – | – | – | > 100 | – | > 100 | – | > 100 | – | – | – | > 100 | > 100 | –
CCCCC#Cc1c(I)n(C2OC(CO[Si](C)(C)C(C)(C)C)C3OC(C)(C)OC32)c(=O)n(C(=O)c2ccccc2)c1=O (stereo unspecified) | 3.25 | > 100 | > 100 | > 100 | 1.5 | 3.05 | – | – | 1.84 | 3.93 | 14 | 27.2 | 1.36 | 2.74 | 0.885 | 13.5 | 14.8 | 27.9 | 28.6 | 10.1
O=c1c2ccccc2oc2ccccc12 (tested in a mixture with another compound) | – | – | – | > 100 | – | > 100 | – | 89.9 | – | > 100 | – | > 100 | – | > 100 | – | – | – | 62.5 | > 100 | –
CC(C)(C)c1ccc(C2CC(=O)C3=C(C2)Nc2ccccc2N(C(=O)c2ccccc2Cl)C3c2ccc(F)cc2)cc1 (stereo unspecified) | > 100 | > 100 | > 100 | > 100 | > 100 | > 100 | > 100 | > 100 | – | – | > 100 | > 100 | > 100 | > 100 | > 100 | > 100 | > 100 | > 100 | – | –
C=CC1C(CC2OC(CO)C(O)C(O)C2O)OC=C2C(=O)OCCC21O (stereo unspecified) | 13.2 | 28 | 18.5 | 48.9 | 3.05 | 30.1 | 15.3 | 34.4 | 4.72 | 34.5 | 5.82 | 30.2 | 16.2 | 32.1 | 1.68 | 9.35 | 46.6 | > 100 | – | –
CCOC(=O)c1c(-c2ccccc2)[n+](=O)c2cc(F)c(F)cc2n1[O-] | 1.25 | 2.71 | 2.14 | 4.46 | 2.01 | 9.91 | – | – | 36.5 | > 100 | 0.624 | 2.16 | 0.238 | 0.584 | 1.14 | 2.73 | 2.03 | 3.57 | 3.77 | 0.717
O=C(O)c1c2c(cc3c(=O)c4ccccc4[nH]c13)CCCC2 | – | – | – | > 100 | – | – | – | > 100 | – | – | – | – | – | > 100 | – | > 100 | – | > 100 | > 100 | –
CCCCCCCC(=O)[O-].CCCCCCCC(=O)[O-].N.N.N.N.[Co+3].[O-][Cl+3]([O-])([O-])[O-] | – | – | > 100 | > 100 | > 100 | > 100 | > 100 | > 100 | – | – | – | – | – | – | > 100 | > 100 | > 100 | > 100 | > 100 | > 100
Cc1cc(=O)[nH]c(N/N=C/c2ccccc2O)n1 | 6.01 | > 100 | 4.4 | > 100 | 18.4 | > 100 | 12.3 | > 100 | 7.67 | > 100 | 2.25 | > 100 | 2.46 | > 100 | – | – | 6.88 | > 100 | 50.1 | 4.26
CN1CCC(c2c(O)cc(O)c3c(=O)cc(-c4ccccc4Cl)oc23)C(O)C1 (stereo unspecified) | – | > 100 | – | > 100 | – | > 100 | – | 0.454 | – | 0.448 | – | 0.473 | – | – | – | 0.337 | – | > 73.4 | – | –
CC(C)[P+](c1ccccc1)(c1ccccc1)c1ccccc1 | 4.11 | > 100 | 5.07 | > 100 | 2.57 | > 100 | 3.36 | > 100 | 2.6 | 26.5 | 3.7 | 94.6 | 3.94 | > 100 | – | – | 22.4 | > 100 | 7.5 | 2.24
COC(=O)/C(C#N)=C1\CCC(OC)N1C (stereo unspecified) | – | > 100 | – | > 100 | – | > 100 | – | > 100 | – | > 100 | – | > 100 | – | > 100 | – | – | – | > 100 | > 100 | –
N#C/C(=C/N1CCN(C(=O)c2ccco2)C1=S)C(=O)Nc1ccc(Cl)cc1 | 17.3 | > 50 | 25.8 | > 50 | 16.3 | > 50 | – | – | 16.7 | 30.2 | 25.2 | > 50 | 15.2 | > 50 | 21.5 | > 50 | 41.2 | > 50 | 28.7 | 10.5
CC12OC(C(=O)C13CC3)C1C(=O)c3c(O)ccc(O)c3C(=O)C12 (stereo unspecified) | 14.7 | 31.1 | 17.5 | 39.2 | 23.5 | 90.1 | 11.9 | 27.4 | 16.1 | 32 | – | – | 14.3 | 28.2 | 11.9 | 41 | 24.6 | 78 | – | –
